The source of these data is ChEMBL document CHEMBL1146050, “Depeptidization efforts on P3-P2' alpha-ketoamide inhibitors of HCV NS3-4A serine protease: effect on HCV replicon activity” (Bioorg Med Chem Lett, 2006).

In general, IC90 refers to the point of the concentration-response curve where the effect stands at 90%. A low value points to greater potency.

The target in one experiment is NS3 (Hepatitis C virus, UniProt A3EZJ3). Description: Inhibitory activity against HCV NS3 protease. Conditions: read-out: Ki app. Details: species or system Hepacivirus hominis.
NS3, sequence (A3EZJ3 whole entry): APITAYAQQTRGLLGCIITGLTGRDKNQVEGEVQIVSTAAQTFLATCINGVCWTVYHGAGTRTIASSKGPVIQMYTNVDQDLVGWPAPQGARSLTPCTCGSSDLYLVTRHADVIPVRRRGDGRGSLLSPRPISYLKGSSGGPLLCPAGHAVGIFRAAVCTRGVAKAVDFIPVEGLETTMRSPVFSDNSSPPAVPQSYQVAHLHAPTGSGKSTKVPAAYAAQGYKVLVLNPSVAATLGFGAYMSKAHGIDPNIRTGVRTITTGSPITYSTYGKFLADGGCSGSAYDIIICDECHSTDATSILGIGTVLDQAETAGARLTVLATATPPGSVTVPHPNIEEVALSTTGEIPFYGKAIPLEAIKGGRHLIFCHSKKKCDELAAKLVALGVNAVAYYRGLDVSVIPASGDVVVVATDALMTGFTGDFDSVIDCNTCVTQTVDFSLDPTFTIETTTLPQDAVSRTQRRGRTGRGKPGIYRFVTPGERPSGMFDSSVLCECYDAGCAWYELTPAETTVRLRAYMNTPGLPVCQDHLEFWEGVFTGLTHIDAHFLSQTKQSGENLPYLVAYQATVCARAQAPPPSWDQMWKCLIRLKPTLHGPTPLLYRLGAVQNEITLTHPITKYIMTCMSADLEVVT
Another experiment deals with Hepatitis C virus. Description: Inhibitory activity against HCV replicon. The experiment is classed as functional, Hepacivirus hominis. In general terms: In antiviral work, replicon cells carry a viral genome segment that copies itself.

Numbered stars: 1 amine (or outer) side, 2 acyl side, 3 side chain; on linkers, the order of the positions; unused ones are H or OH. Square brackets hold non-standard residues; d marks the D form. Peptide text beside a SMILES is read from it. * marks the point of attachment. NMeAla(cPr) = CN[C@@H](CC1CC1)C(=O)O; Isobutyloxycarbonyl = CC(C)COC(=O)*; X1 = O=C(C(=O)[*:2])C(CC1CC1)N[*:1]; Ala(cPr) = N[C@@H](CC1CC1)C(=O)O; Chg = N[C@H](C(=O)O)C1CCCCC1; Phg = N[C@H](C(=O)O)c1ccccc1

Take `CC(C)COC(=O)N[C@@H](C1CCCCC1)[C@@H](O)CC(=O)N[C@@H](CC1CC1)C(=O)NC(CC1CC1)C(=O)C(=O)NCC(=O)N[C@H](C(=O)O)c1ccccc1` (stereo partly specified): the Ki on NS3 was found to be 42 µM. The compound further had an IC90 in the experiment on Hepatitis C virus of more than 5 µM.
In the same order, the values of `CC(C)COC(=O)N[C@@H](C1CCCCC1)[C@@H](O)CN(CC1CC1)C(=O)NC(CC1CC1)C(=O)C(=O)NCC(=O)N[C@H](C(=O)O)c1ccccc1` (stereo partly specified) are 10 µM and more than 5 µM.
On to `CC(C)COC(=O)N[C@H](C(=O)NN(CC1CC1)C(=O)NC(CC1CC1)C(=O)C(=O)NCC(=O)N[C@H](C(=O)O)c1ccccc1)C1CCCCC1` (stereo partly specified), for which, on NS3, the Ki was 0.23 µM. Moreover, the IC90 in the experiment on Hepatitis C virus was more than 5 µM.
For the compound `CC(C)COC(=O)N[C@H](C(=O)CN(CC1CC1)C(=O)NC(CC1CC1)C(=O)C(=O)NCC(=O)N[C@H](C(=O)O)c1ccccc1)C1CCCCC1` (stereo partly specified), on NS3, the Ki amounted to 2.1 µM. Further, in the experiment with Hepatitis C virus, the 90% effect concentration (IC90) was more than 5 µM.
In the same order, the values of `CC(C)COC(=O)N[C@H](C(=O)N[C@@H](CC1CC1)C(=O)NC(CC1CC1)C(=O)C(=O)NCC(=O)N[C@H](C(=O)N(C)C)c1ccccc1)C1CCCCC1` (stereo partly specified) (Isobutyloxycarbonyl-[Chg][Ala(cPr)][X1]G[Phg]-NMe2) are 0.05 µM and more than 5 µM.
For the compound `CC(C)COC(=O)N[C@H](C(=O)N[C@@H](CC1CC1)C(=O)NC(CC1CC1)C(=O)C(=O)NCC(=O)N[C@H](C(=O)O)c1ccccc1)C1CCCCC1` (stereo partly specified) (Isobutyloxycarbonyl-[Chg][Ala(cPr)][X1]G[Phg]-OH), at NS3, the Ki is 0.015 µM. In the experiment on Hepatitis C virus, this compound displayed an IC90 of more than 5 µM.
In the same order, the values of `CC(C)COC(=O)N[C@H](C(=O)N(C)[C@@H](CC1CC1)C(=O)NC(CC1CC1)C(=O)C(=O)NCC(=O)N[C@H](C(=O)N(C)C)c1ccccc1)C1CCCCC1` (stereo partly specified) (Isobutyloxycarbonyl-[Chg][NMeAla(cPr)][X1]G[Phg]-NMe2) are 0.06 µM and 0.95 µM.
In the same order, the values of `CC(C)COC(=O)N[C@H](C(=O)N(C)[C@@H](CC1CC1)C(=O)NC(CC1CC1)C(=O)C(=O)NCC(=O)N[C@H](C(=O)O)c1ccccc1)C1CCCCC1` (stereo partly specified) (Isobutyloxycarbonyl-[Chg][NMeAla(cPr)][X1]G[Phg]-OH) are 0.12 µM and more than 5 µM.
